From patent publication US10155021B2, “Antimicrobial 4-oxoquinolizines” (Emergent Product Development Gaithersburg Inc., priority 2011, dated 2018)
Where two headings read alike, the source gives them in different places.

Legend:
B. thailandensis = assay: microbe, parasite or virus in culture; assay type: cell-based, Burkholderia thailandensis; settings: pH 7 versus pH 5
[1] = tested on: resistant strains of A. baumannii and one strain of Acinetobacter sp.; assay: MIC without and with sub-inhibitory polymyxin B, whole panel / MIC ranges (Example 4; also strains not listed separately); assay type: cell-based; settings: for MIC: Acinetobacter baumannii
A. baumannii A387 [2] = assay: MIC without and with sub-inhibitory polymyxin B (Example 4); assay type: cell-based, Acinetobacter baumannii; settings: for MIC +0.06 μg/ml PB: A. baumannii A387, +0.06 μg/ml polymyxin B; for MIC: Acinetobacter baumannii, A387, A. baumannii A387, without polymyxin B, read-out: MIC without PB
[3] = tested on: Acinetobacter sp. (H064200250); assay: as above; assay type: cell-based; settings: Acinetobacter, without polymyxin B, read-out: MIC without PB
A. baumannii A473 [4] = assay: Preliminary MBC without and with sub-inhibitory polymyxin B (Example 4); assay type: cell-based, Acinetobacter baumannii; settings: Acinetobacter baumannii, A473, A. baumannii A473, without polymyxin B, read-out: MBC without PB
A. baumannii J2 [5] = assay: MIC without and with sub-inhibitory polymyxin B (Example 4); assay type: cell-based, Acinetobacter baumannii; settings: Acinetobacter baumannii, J2, A. baumannii J2; without polymyxin B; 1st experiment; read-out: MIC without PB
A. baumannii A489 [6] = assay: as above; assay type: cell-based, Acinetobacter baumannii; settings: Acinetobacter baumannii, A489, A. baumannii A489, without polymyxin B
A. baumannii A401 [7] = assay: as above; assay type: cell-based, Acinetobacter baumannii; settings: Acinetobacter baumannii, A401, A baumannii A 401, without polymyxin B, read-out: MIC without PB
A. baumannii A329 [8] = assay: Preliminary MBC without and with sub-inhibitory polymyxin B (Example 4); assay type: cell-based, Acinetobacter baumannii; settings: Acinetobacter baumannii, A329, A. baumannii A329, without polymyxin B, 1st experiment, read-out: MBC without PB
A. baumannii A387 [9] = assay: as above; assay type: cell-based, Acinetobacter baumannii; settings: Acinetobacter baumannii, A387, A. baumannii A387, without polymyxin B, read-out: MBC without PB
A. baumannii A472 [10] = assay: MIC without and with sub-inhibitory polymyxin B (Example 4); assay type: cell-based, Acinetobacter baumannii; settings: for MIC: Acinetobacter baumannii, A472, A. baumannii A472, without polymyxin B, read-out: MIC without PB; for MIC ratio without/with polymyxin B: A. baumannii A472, ratio MIC without PB to MIC + PB, PB […]
A. baumannii A473 [11] = assay: as above; assay type: cell-based, Acinetobacter baumannii; settings: for MIC: Acinetobacter baumannii, A473, A. baumannii A473, without polymyxin B
A. baumannii A472 [12] = assay: Preliminary MBC without and with sub-inhibitory polymyxin B (Example 4); assay type: cell-based, Acinetobacter baumannii; settings: Acinetobacter baumannii, A472, A. baumannii A472, without polymyxin B, read-out: MBC without PB
A. baumannii A489 [13] = assay: as above; assay type: cell-based, Acinetobacter baumannii; settings: Acinetobacter baumannii, A489, A. baumannii A489, without polymyxin B, read-out: MBC without PB
[14] = tested on: Acinetobacter sp. (H064200250); assay: as above; assay type: cell-based; settings: Acinetobacter, without polymyxin B, preliminary MBC, read-out: MBC without PB
Experimental: The plates were incubated for 18-20 hours at 37° C. The MBC was read as the lowest concentration at which colony growth was ca. 90% less than the positive control (i.e. usually where single colonies or no colonies were observed).

A. baumannii ATCC 19606 [15] = assay: as above; assay type: cell-based, Acinetobacter baumannii; settings: Acinetobacter baumannii, ATCC19606, A. baumannii ATCC 19606, without polymyxin B, preliminary MBC, read-out: MBC without PB
A. baumannii J2 [16] = assay: as above; assay type: cell-based, Acinetobacter baumannii; settings: Acinetobacter baumannii, J2, A. baumannii J2; without polymyxin B; preliminary MBC; 1st experiment; read-out: MBC without PB
A. baumannii A401 [17] = assay: as above; assay type: cell-based, Acinetobacter baumannii; settings: Acinetobacter baumannii, A401, A baumannii A 401; without polymyxin B; preliminary MBC; 1st experiment; read-out: MBC without PB
A. baumannii A329 [18] = assay: MIC without and with sub-inhibitory polymyxin B (Example 4); assay type: cell-based, Acinetobacter baumannii; settings: for MIC: Acinetobacter baumannii
[19] = tested on: Acinetobacter spp. H064200250; assay: MIC determination for Acinetobacter strains (Example 3); assay type: cell-based, Acinetobacter sp.; settings: LEV R, CIP R, MRP R, IMP I
[20] = tested on: 11 strains of A. baumannii and one strain of Acinetobacter sp.; assay: Preliminary MBC without and with sub-inhibitory polymyxin B, whole panel (Example 4; also strains not listed separately); assay type: cell-based; settings: Acinetobacter baumannii, 2nd experiment, read-out: MBC without PB
A. baumannii A390 [21] = assay: MIC determination for Acinetobacter strains (Example 3); assay type: cell-based; settings: LEV R, CIP R, MRP R, IPM I, AMK R, TET I
A. baumannii A489 [22] = assay: as above; assay type: cell-based; settings: LEV R, CIP R, MRP R, IMP R, AMK R, TET R
A. baumannii A 401 = assay: as above; assay type: cell-based; settings: A401, LEV R, CIP R, AMK R, TET R
A. baumannii A473 [23] = assay: as above; assay type: cell-based; settings: LEV R, CIP R, MRP R, IMP R, AMK R, TET R
A. baumannii ATCC 19606 [24] = assay: MIC without and with sub-inhibitory polymyxin B (Example 4); assay type: cell-based, Acinetobacter baumannii; settings: Acinetobacter baumannii, ATCC19606, A. baumannii ATCC 19606; without polymyxin B; 2nd experiment; second reading marked *, mark not explained; read-out: MIC without PB, value in parentheses marked *
A. baumannii A472 [25] = assay: MIC determination for Acinetobacter strains (Example 3); assay type: cell-based; settings: LEV R, CIP R, MRP I, IMP I, AMK R, TET R
A. baumannii A390 [26] = assay: MIC without and with sub-inhibitory polymyxin B (Example 4); assay type: cell-based, Acinetobacter baumannii; settings: Acinetobacter baumannii, A390, A. baumannii A390, without polymyxin B, read-out: MIC without PB
[27] = Acinetobacter spp. H064200250, 1st experiment
[28] = read-out: MIC range without PB 01-10-2008 n = 8, without polymyxin B, 1st experiment, 8 strains
[29] = 1st experiment, read-out: MIC without PB
[30] = Acinetobacter spp. H064200250 (OXA51), 2nd experiment, visual reading
[31] = Acinetobacter spp. H064200250 (OXA51), 2nd experiment
[32] = 2nd experiment, MIC read with alamar blue, read-out: MIC without PB, read with alamar blue
[33] = 2nd experiment, visual reading, read-out: MIC without PB

8-[(3S)-3-aminocyclopentyl]-1- cyclopropyl-7-fluoro-9-methyl- 4-oxo-quinolizine-3-carboxylic acid [Compound 10]
1: MIC without PB/MIC + PB ([1]; A. baumannii A14, ratio, PB 0.06 μg/ml, 1st experiment)
Yes, 2×: Dilutions improvement shift on B. thailandensis MIC90 (between pH 7 and pH 5) (B. thailandensis)
0.5 µg/mL: MIC +0.06 μg/ml PB (A. baumannii A387 [2]; 1st experiment)

Cc1c(-c2ccc(N)c(F)c2)c(F)cn2c(=O)c(C(=O)O)cc(C3CC3)c12 [Compound 17, 8-(3-fluoro-4-amino-phenyl)-1-cyclopropyl-7-fluoro-9-methyl-4-oxo-quinolizine-3-carboxylic acid]
8 µg/mL: MIC [3, 27] | MIC (A. baumannii A489 [6]; [29]) | MBC (A. baumannii A329 [8]) | MBC [14, 27] | MBC (A. baumannii A401 [17]) | MIC (A. baumannii A329 [18]; A329, A. baumannii A329, without polymyxin B, 1st experiment, read-out: MIC without PB)
2 µg/mL: MBC (A. baumannii A387 [9]; 1st experiment)
1 to 16 µg/mL: MIC [1, 28]
1 µg/mL: MBC (A. baumannii ATCC 19606 [15]; 1st experiment) | MIC (A. baumannii A387 [2]; 1st experiment)
4 µg/mL: MBC (A. baumannii A473 [4]; 1st experiment) | MIC (A. baumannii J2 [5]) | MIC (A. baumannii A401 [7]; 1st experiment) | MIC (A. baumannii A472 [10]; 1st experiment) | MIC (A. baumannii A473 [11]; [29]) | MBC (A. baumannii A472 [12]; 1st experiment) | MBC (A. baumannii A489 [13]; 1st experiment) | MBC (A. baumannii J2 [16])

NCC[C@H](O)C(=O)N[C@@H]1C[C@H](N)[C@@H](O[C@H]2O[C@H](CN)[C@@H](O)[C@H](O)[C@H]2O)[C@H](O)[C@H]1O[C@H]1O[C@H](CO)[C@@H](O)[C@H](N)[C@H]1O [Amikacin, reference compound]
not significantly affected: fold greater activity (fold lower MIC) in presence of polymyxin B compared to without polymyxin B [1]
≥ 4 µg/mL: MIC ratio without/with polymyxin B (A. baumannii A472 [10]; 2nd experiment)
128 µg/mL: MIC +[…] PB ([1]; A. baumannii NCTC 13301, +[…] polymyxin B, 2nd experiment, visual reading) | MIC +0.06 μg/ml PB (A. baumannii A473 [11]; A. baumannii A473, +0.06 μg/ml polymyxin B, 2nd experiment, visual reading) | MIC +0.06 μg/ml PB (A. baumannii A387 [2]; 2nd experiment, visual reading) | MIC +0.06 μg/ml PB (A. baumannii A329 [18]; A. baumannii A329, +0.06 μg/ml polymyxin B, 2nd experiment, visual reading)
16 µg/mL: MIC [3, 27] | MIC [19] | MBC [14, 27] | MBC (A. baumannii ATCC 19606 [15]; 2nd experiment) | MBC (A. baumannii ATCC 19606 [15]; 1st experiment) | MBC ([20]; A. baumannii A14, without polymyxin B)
8 µg/mL: MIC [3, 30] | MBC [14, 31]

C[C@@H](O)[C@H]1C(=O)N2C(C(=O)O)=C(S[C@@H]3CN[C@H](C(=O)N(C)C)C3)[C@H](C)[C@H]12 [Meropenem, reference compound]
64 µg/mL: MIC ([1]; NCTC13301, A. baumannii NCTC 13301, without polymyxin B, 2nd experiment, visual reading, read-out: MIC without PB) | MBC (A. baumannii A473 [4]; 1st experiment) | MIC (A. baumannii ATCC 19606 [24]) | MBC ([20]; NCTC13301, A. baumannii NCTC 13301, without polymyxin B) | MIC (A. baumannii A329 [18]; A329, read-out: MIC +0.06 μg/ml PB, read with alamar blue, A. baumannii A329, +0.06 μg/ml polymyxin B, 2nd experiment, MIC read with alamar blue)
8 µg/mL: MBC (A. baumannii A387 [9]; 2nd experiment) | MIC (A. baumannii A472 [10]; 1st experiment) | MIC (A. baumannii A472 [10]; 2nd experiment, visual reading) | MIC (A. baumannii A472 [25]) | MBC (A. baumannii A472 [12]; 1st experiment) | MBC (A. baumannii A472 [12]; 2nd experiment) | MBC (A. baumannii A489 [13]; 1st experiment) | MIC (A. baumannii A387 [2]; 2nd experiment, visual reading)
1 to 32 µg/mL: MIC [1, 28]
≥ 64 µg/mL: MIC ratio without/with polymyxin B (A. baumannii A472 [10]; 2nd experiment)
32 µg/mL: MIC [3, 27] | MIC (A. baumannii A390 [21]) | MIC [19] | MIC ([1]; NCTC13301, A. baumannii NCTC 13301, without polymyxin B, 1st experiment, read-out: MIC without PB) | MIC (A. baumannii A 401) | MIC (A. baumannii A489 [6]; [32]) | MIC (A. baumannii A401 [7]; 1st experiment) | MIC (A. baumannii A390 [26]; 1st experiment) | MIC (A. baumannii A390 [26]; 2nd experiment, visual reading) | MIC (A. baumannii A473 [11]; [32])
16 µg/mL: MIC [3, 30] | MIC (A. baumannii A489 [22]) | MBC (A. baumannii A473 [4]; 2nd experiment) | MIC (A. baumannii A489 [6]; [29]) | MIC (A. baumannii A489 [6]; [33]) | MIC (A. baumannii A473 [23]) | MIC (A. baumannii A401 [7]; 2nd experiment, visual reading) | MIC (A. baumannii A473 [11]; [29]) | MIC (A. baumannii A473 [11]; [33]) | MBC (A. baumannii A489 [13]; 2nd experiment) | MBC [14, 31] | MBC [14, 27] | MBC (A. baumannii A401 [17])
